Where two headings read alike, the source gives them in different places.
Assays:
human osteoclasts = assay: Cell polarisation (F-actin rings) and resorption by human osteoclasts; format: cell-based
Text: Number of F-actin rings in osteoclast cultures, expressed as percentage of vehicle (0.1% DMSO) control±SEM (n=4-7 experiments with five replicates for each). ** P<0.01 compared to control, ANOVA with Dunnett's multiple comparison test.

GPR55 [1] = target: T1, GPR55 (Homo sapiens, UniProt Q9Y2T6); conditions: cited from earlier work; for EC50: source per value in footnotes (Johns 2007, Ryberg 2007, Brown 2007), read-out: GTPγS EC50
GPR55 [2] = target: T1, GPR55; conditions: cited from earlier work
CB2 [3] = target: T2, CB2 (Homo sapiens, UniProt P34972); conditions: cited from earlier work
MDA-MB231 subclone = assay: Boyden chamber chemotaxis assay, Protocol I (ligand concentration gradient); format: cell-based, human; conditions: serum starved cells; test drug (1 μM per Protocol I) in 0.01% DMSO in lower wells; 4 hours
Experimental: 10 μl of the resulting cell suspension was transferred to a haemocytometer and the number of cells per ml of suspension was calculated from the counted cell number. Serum free medium was added to the cell suspension in a quantity necessary to bring the suspension to a cell number of 1×10^6 cells per ml. […]

[4] = test system: GPR55 over-expressing MCF7 cells; assay: Cultrex Cell Invasion Assay, GPR55 over-expressing MCF7; format: cell-based, human
Experimental: (§1) Cell were cultured to 80% confluence then serum starved overnight prior to beginning the assay. On ice, a 0.5×BME stock solution was prepared from the 5× stock in a conical tube and inverted to mix. 100 μl of BME stock solution was aliquoted into each well of the 24 well plate and the chamber incubated at 37° C. overnight. The following morning cells were harvested, washed once using 1× wash buffer, counted, and re-suspended to a density of 5×10^5 cells ml^−1. The top chamber was then carefully aspirated, taking care not to let chambers dry out, and 100 μl of cells per well added to the top chamber. 500 μl of media per well (with or without chemoattractant) was then added to the lower wells of the chamber. The chamber was then assembled and incubated at 37° C. in a humidified environment for 24 hours. The following day the upper chamber was carefully aspirated and washed with 100 μl of 1× wash buffer, and lower wells washed with 500 μl of wash buffer. 12 μl of Calcein-AM solution was added to 12 mL of cell dissociation fluid, and 500 μl of this solution added to the lower chamber. The chamber was then re-assembled and incubated at 37° C. for one hour. The upper chamber was then removed, and dissolved Calcein-AM was read at 485 nm excitation, 520 nm emission. […]

CB1 [5] = target: T3, CB1 (Homo sapiens, UniProt P21554); conditions: cited from earlier work
MDA-MB-231 cells [6] = assay: alamarBlue assay of cell viability; format: cell-based, human
[7] = test system: control (empty vector transfected) MCF7 cells; assay: Cultrex Cell Invasion Assay, empty vector transfected MCF7; format: cell-based, human
Experimental: as §1

MDA-MB231 = assay: Boyden chamber chemotaxis assay, CBD as chemoattractant (FIG. 8); format: cell-based, human; conditions: serum starved cells; CBD with 0.01% DMSO
Experimental: (§2) Cells used for all chemotaxis assays were bathed in their respective serum-free media and incubated for 19 hours prior to experimentation. The serum starved cells were washed with 5 ml PBS and dissociated from their growth plate using 5 ml of non-enzymatic cell dissociation solution. 5 ml of the respective serum free medium was added after dissociation of the cells, and the cell suspension was transferred to a universal container and centrifuged at 2000 rpm for 5 minutes. The supernatant fluid was discarded and the remaining cell pellet was re-suspended in 2 ml of serum free medium.
(§3) 10 μl of the resulting cell suspension was transferred to a haemocytometer and the number of cells per ml of suspension was calculated from the counted cell number. Serum free medium was added to the cell suspension in a quantity necessary to bring the suspension to a cell number of 1×10^6 cells per ml.
Solutions of 10% FBS (with 0.01% DMSO vehicle), 0.01% DMSO vehicle control and 1 μM of test drug (O-1602 in 0.01% DMSO vehicle), were prepared. […]
(§4) Migrated cells were counted using a Leitz microscope. Individual wells and their borders were visualised using a 10× objective lens and cells were then counted using a 40× objective lens. Cells found in one quarter of three non-overlapping 40× fields within each migration well were counted. The same fields were chosen in every well counted. […]

MDA-MB-231 cells [8] = assay: Cultrex Cell Invasion Assay towards FBS; format: cell-based, human; conditions: CBD 1 μM pre-incubation; 24 hours
Experimental: Cell were cultured to 80% confluence then serum starved overnight prior to beginning the assay. On ice, a 0.5×BME stock solution was prepared from the 5× stock in a conical tube and inverted to mix. 100 μl of BME stock solution was aliquoted into each well of the 24 well plate and the chamber incubated at 37° C. overnight. The following morning cells were harvested, washed once using 1× wash buffer, counted, and re-suspended to a density of 5×10^5 cells ml^−1. The top chamber was then carefully aspirated, taking care not to let chambers dry out, and 100 μl of cells per well added to the top chamber. 500 μl of media per well (with or without chemoattractant) was then added to the lower wells of the chamber. The chamber was then assembled and incubated at 37° C. in a humidified environment for 24 hours. The following day the upper chamber was carefully aspirated and washed with 100 μl of 1× wash buffer, and lower wells washed with 500 μl of wash buffer. 12 μl of Calcein-AM solution was added to 12 mL of cell dissociation fluid, and 500 μl of this solution added to the lower chamber. The chamber was then re-assembled and incubated at 37° C. for one hour. The upper chamber was then removed, and dissolved Calcein-AM was read at 485 nm excitation, 520 nm emission.

MDA-MB231 cells = assay: Boyden chamber migration towards FBS, Protocol II (pre-treatment of cells); format: cell-based, human; conditions: for Tumour cell chemotaxis (migration) to FBS after pre-incubation: 1 μM pre-incubation 30 minutes, 10% FBS, no compound gradient, 4 hours
Experimental: as §2, §3
(§5) Two aliquots of the 1×10^6 cells/ml, cell suspension were prepared, and quantities of 0.1% DMSO and […] (both with 0.1% DMSO vehicle) were added to one aliquot each, to bring the cell suspension concentrations to 0.01% DMSO and 1 μM test compound (with 0.01% DMSO vehicle). The cell suspensions were incubated with each compound for 30 minutes at 37° C. in 5% CO2. […]
as §4
The results for all assays done with each individual drug type were pooled by calculating the mean number of cells migrating in 0.01% DMSO vehicle control wells. The cell number for each individual well was then expressed as a percentage of the vehicle mean.

CB2 [9] = target: T2, CB2; conditions: Ryberg et al., 2007, read-out: GTPγS EC50; cited from earlier work
CB1 [10] = target: T3, CB1; conditions: Ryberg et al., 2007, read-out: GTPγS EC50; cited from earlier work
GPR55 [11] = target: T1, GPR55; conditions: footnote of Table 1
[12] = test system: vector transfected MCF7 cells; assay: Boyden chamber chemotaxis assay, vector transfected MCF7; format: cell-based, human; conditions: LPI pre-incubation 1 μM
Experimental: as §2, §3, §5

GPR55 [13] = target: T1, GPR55; conditions: Oka et al., 2007, read-out: ERK Phosphorylation EC50; cited from earlier work
[14] = test system: MCF7 cells transiently over-expressing GPR55; assay: Boyden chamber chemotaxis assay, GPR55 over-expressing MCF7; format: cell-based, human; conditions: LPI pre-incubation 1 μM
Experimental: as §2, §3, §5

MG-63 cells = assay: Endocannabinoid levels in MG-63 cells treated with PTH; format: cell-based, human
Experimental: Cells were washed in PBS and treated for 90 minutes with 200 ug/ml LPS. Values represent the mean±SEM from 3 separate donors. […] Levels of anandamide were undetectable in two control samples which precludes statistical analysis. (C) 2-AG levels in MG-63 cells treated with PTH. Cells were treated for the times indicated with 40 nM or 100 nM PTH. The results are expressed as percentage of control and are the means±SEM (n=2-4 experiments, duplicate samples for each), ** P<0.01 compared to control, ANOVA with Dunnett's multiple comparison test.

T1 sequence (Q9Y2T6 whole entry): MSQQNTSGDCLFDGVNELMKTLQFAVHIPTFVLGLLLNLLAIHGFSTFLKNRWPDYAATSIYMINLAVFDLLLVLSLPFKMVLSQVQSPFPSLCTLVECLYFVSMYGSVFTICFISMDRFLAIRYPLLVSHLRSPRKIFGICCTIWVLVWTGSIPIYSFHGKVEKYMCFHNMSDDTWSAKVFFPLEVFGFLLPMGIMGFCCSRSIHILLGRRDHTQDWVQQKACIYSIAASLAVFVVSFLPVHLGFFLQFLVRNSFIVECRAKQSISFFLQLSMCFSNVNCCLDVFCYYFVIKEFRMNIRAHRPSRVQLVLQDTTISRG
T3 sequence (P21554 whole entry, species assumed): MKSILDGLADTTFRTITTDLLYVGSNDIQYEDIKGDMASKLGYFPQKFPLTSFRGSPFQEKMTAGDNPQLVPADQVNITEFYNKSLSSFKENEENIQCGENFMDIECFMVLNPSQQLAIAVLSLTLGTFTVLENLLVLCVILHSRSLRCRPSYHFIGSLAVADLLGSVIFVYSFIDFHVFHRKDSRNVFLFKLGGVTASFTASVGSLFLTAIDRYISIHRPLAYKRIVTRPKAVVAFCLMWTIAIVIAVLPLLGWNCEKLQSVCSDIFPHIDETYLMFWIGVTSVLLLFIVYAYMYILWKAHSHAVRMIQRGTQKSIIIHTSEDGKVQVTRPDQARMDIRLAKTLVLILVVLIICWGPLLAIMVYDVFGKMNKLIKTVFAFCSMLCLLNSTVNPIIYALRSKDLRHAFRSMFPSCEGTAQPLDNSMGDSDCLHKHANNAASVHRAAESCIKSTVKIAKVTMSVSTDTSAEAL
T2 sequence (P34972 whole entry, species assumed): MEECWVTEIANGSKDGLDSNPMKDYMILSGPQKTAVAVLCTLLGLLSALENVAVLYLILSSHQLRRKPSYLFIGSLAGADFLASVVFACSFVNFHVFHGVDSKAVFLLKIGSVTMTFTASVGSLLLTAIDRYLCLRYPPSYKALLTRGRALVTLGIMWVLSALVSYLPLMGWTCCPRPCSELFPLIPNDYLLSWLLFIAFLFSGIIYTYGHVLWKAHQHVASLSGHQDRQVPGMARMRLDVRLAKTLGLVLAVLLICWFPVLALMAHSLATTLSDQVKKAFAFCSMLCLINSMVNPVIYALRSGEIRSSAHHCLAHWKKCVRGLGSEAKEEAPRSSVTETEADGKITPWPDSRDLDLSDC

Molecule: CCCCC/C=C\C/C=C\C/C=C\C/C=C\CCCC(=O)OC(CO)CO [2-AG]
- Resorptive activity (human osteoclasts; 10 nM and 100 nM): significant increase
- Cell polarisation i.e. number of F-actin rings (human osteoclasts; 10 nM and 100 nM, 5 days): significant increase
- Stimulatory effect on polarisation and resorption at higher concentration (human osteoclasts; 1 μM): lost

Molecule: CCCCC/C=C\C/C=C\C/C=C\C/C=C\CCCC(=O)NCCO [AEA, anandamide]
- EC50 (GPR55 [1]): 18 nM
- Drug action on receptors: GPR55 (GPR55 [2]): Agonist
- Drug action on receptors: CB2 (CB2 [3]): Agonist
- Cell migration compared to vehicle control (chemoattractant effect) (MDA-MB231 subclone): significant increase in cell number
- F-actin ring number (human osteoclasts; 10 nM to 1 μM): did not result in a significant change
- Resorption (human osteoclasts; 10 nM to 1 μM): significantly stimulate

Molecule: C=C(C)[C@@H]1CCC(C)=C[C@H]1c1c(O)cc(CCCCC)cc1O [CBD, Cannabidiol]
- IC50 (GPR55 [1]; antagonist, Brown, 2007, read-out: GTPγS IC50): 350 nM
- FBS-induced invasion [4]: significantly inhibited
- Drug action on receptors: CB1 (CB1 [5]): Antagonist^7
- Drug action on receptors: GPR55 (GPR55 [2]): Antagonist^2
- Cytotoxic action (cell viability) (MDA-MB-231 cells [6]; 1 μM treatment for 24 hours (invasion assay)): no cytotoxic action
- Cytotoxic action (cell viability) (MDA-MB-231 cells [6]; concentrations up to 10 μM, treatment for 4 hours (migration assay)): no cytotoxic action
- Basal invasion [7]: no effect
- Tumour cell migration compared to control (chemoattractant effect) (MDA-MB231): no effect on tumour cell migration
- Tumour cell invasion towards FBS after pre-incubation (MDA-MB-231 cells [8]): significantly attenuated
- Tumour cell chemotaxis (migration) to FBS after pre-incubation (MDA-MB231 cells): significantly inhibits
- Effect on LPI-increased chemotaxis to FBS (MDA-MB231 cells; co-incubation LPI (1 μM) combined with CBD (1 μM)): prevented

Molecule: CCCCCCC(C)(C)c1ccc([C@@H]2C[C@H](O)CC[C@H]2CCCO)c(O)c1 [CP55940, (−)-cis-3-[2-hydroxy-4-(1,1-dimethylheptyl)phenyl]-trans-4-(3-hydroxypropyl)cyclohexanol]
- Drug action on receptors: GPR55 (GPR55 [2]): agonists

Molecule: CCCn1c(C)c(C(=O)c2cccc3ccccc23)c2ccccc21 [JWH015]
- EC50 (GPR55 [1]): 4 nM
- Drug action on receptors: GPR55 (GPR55 [2]): Agonist

Molecule: C=C(C)[C@@H]1CCC(C)=C[C@H]1c1c(C)cc(O)cc1O [O-1602]
- EC50 (CB2 [9]): > 30000 nM
- EC50 (CB1 [10]): > 30000 nM
- Drug action on receptors: CB1 (CB1 [5]): No action^3
- Drug action on receptors: GPR55 (GPR55 [2]): Agonist
- Drug action on receptors: CB2 (CB2 [3]): No action
- Cell migration compared to vehicle control (chemoattractant effect) (MDA-MB231 subclone): significant increase in cell migration
- Selectivity for GPR55 versus CB1 and CB2 (in words) (GPR55 [11]): Compounds such as O-1602 and LPI are therefore thought to be relatively selective GPR55 agonists, whilst AEA has a broad specificity.

Molecule: CCCCCc1cc(O)c2c(c1)OC(C)(C)[C@@H]1CCC(C)=C[C@@H]21 [THC, Δ-9-Tetrahydrocannabinol]
- Drug action on receptors: GPR55 (GPR55 [2]): agonists

Molecule: lysophosphatidylinositol [LPI]
- Drug action on receptors: GPR55 (GPR55 [2]): Agonist^6
- Migration towards FBS [12]: unaffected
- Selectivity for GPR55 versus CB1 and CB2 (in words) (GPR55 [11]): Compounds such as O-1602 and LPI are therefore thought to be relatively selective GPR55 agonists, whilst AEA has a broad specificity.
- EC50 (GPR55 [13]): ~200 nM
- FBS-induced migration [14]: enhanced
- Tumour cell chemotaxis (migration) to FBS after pre-incubation (MDA-MB231 cells): significantly increases

B1: PTH: PTH, 40 nM or 100 nM, activates the PTH receptor (peptide, UniProt P01270 32-115, looked up)
Parathyroid hormone: SVSEIQLMHNLGKHLNSMERVEWLRKKLQDVHNFVALGAPLAPRDAGSQRPRKKEDNVLVESHEKSLGEADKADVNVLTKAKSQ
modifications: Parathyroid hormone
- Levels of 2-AG detected in MG-63 cells (MG-63 cells; prolonged treatment with 40 nM or 100 nM PTH): significant increase
- Levels of anandamide detected in MG-63 cells (MG-63 cells; prolonged treatment with PTH, data not shown): no change

— patent publication US20110076274A1, “MATERIALS AND METHODS RELATING TO A G-PROTEIN COUPLED RECEPTOR” (priority 2008, published 2011)
